Earlier results in patent publication US8211842B2, “Preventive and/or curative agent for cleaning materials that are brought into contact with water” (priority 2006, dated 2012).

What was measured:
Details in all cases: standard AFNOR NF T 72-151
Escherichia coli 54127 = system: Escherichia coli 54127
[1] = system: Streptococcus faecalis 5855
[2] = system: Pseudomonas aeruginosa A22
[3] = system: Mycobactenum smegmatis 7326
[4] = system: Staphylococcus aureus 53164

Measured: dose effective as a bactericide

CCCCCCCCCC[N+](C)(C)CCCCCCCCCC.[Cl-] [didecyl dimethylammonium chloride]
50 ppm: all assays above
